In the supplement of paper PMC10627819:

How the values were obtained:
B. subtilis 168 [1] = assay: fitness (endpoint OD595 vs no drug) (fraction); higher = more growth
Method in brief: (§1)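 Fitness was defined as the optical density at the transition into stationary phase relative to the robust mean of no-drug control wells. Values were capped at 1. Cultures were started at OD595 0.01 in 384-well plates (30 µl, or 55 µl for S. pneumoniae) in TSB, LB Lennox or CY at 37 °C. OD595 was recorded every 30 min over 14 h, with the first reading subtracted as background.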

S. aureus DSM 20231 [2] = assay: as above
Method in brief: as §1

S. aureus Newman [3] = assay: as above
Method in brief: as §1

S. pneumoniae D39V [4] = assay: as above
Method in brief: as §1

B. subtilis 168 [5] = assay: Bliss interaction score (quartile over a dose matrix) (fitness difference); higher = more antagonism (negative = synergy)
Method in brief: (§2)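 OD595 was read at entry into stationary phase and expressed relative to the robust mean of the no-drug wells on the same plate, capped at 1. The resulting ratio is the fitness value. The Bliss score, observed fitness minus product-based expected fitness with single-drug fitness inferred from combinations, is summarised by quartiles over technical, biological and donor/recipient replicates.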

S. aureus DSM 20231 [6] = assay: as above
Method in brief: as §2

S. aureus Newman [7] = assay: as above
Method in brief: as §2

S. pneumoniae D39V [8] = assay: as above
Method in brief: as §2
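Wherever Bliss interaction score (quartile over a dose matrix) is given: first quartile when negative (synergy) and third quartile when positive (antagonism).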

CO/N=C(\C(=O)N[C@@H]1C(=O)N2C(C(=O)O)=C(COC(C)=O)CS[C@H]12)c1csc(N)n1 [Cefotaxime] + C[C@@H]1O[C@@H]1P(=O)(O)O [Fosfomycin]
fitness, one replicate
Settings | partner 0.781 µg/mL | partner 1.562 µg/mL | partner 3.124 µg/mL | partner 6.248 µg/mL
B. subtilis 168 [1], first compound 0.00775 µg/mL | – | 0.573 | 0.446 | 0.274
B. subtilis 168 [1], first compound 0.0155 µg/mL | – | 0.443 | 0.362 | 0.198
B. subtilis 168 [1], first compound 0.031 µg/mL | – | 0.319 | 0.225 | 0.156
B. subtilis 168 [1], first compound 0.0625 µg/mL | – | 0.454 | 0.413 | 0.34
B. subtilis 168 [1], first compound 0.125 µg/mL | – | 0.472 | 0.389 | 0.238
B. subtilis 168 [1], first compound 0.25 µg/mL | – | 0.367 | 0.337 | 0.186
S. aureus DSM 20231 [2], first compound 0.039 µg/mL | 0.718 | 0.673 | 0.504 | –
S. aureus Newman [3], first compound 0.039 µg/mL | 0.58 | 0.511 | 0.202 | –
S. aureus Newman [3], first compound 0.312 µg/mL | 0.341 | 0.205 | 0.117 | –

Settings | fitness
B. subtilis 168 [1], first compound 0.5 µg/mL, partner 1.562 µg/mL | 0.244
B. subtilis 168 [1], first compound 0.5 µg/mL, partner 3.124 µg/mL | 0.194
B. subtilis 168 [1], first compound 0.5 µg/mL, partner 6.248 µg/mL | 0.16
B. subtilis 168 [1], first compound 1 µg/mL, partner 1.562 µg/mL | 0.134
B. subtilis 168 [1], first compound 1 µg/mL, partner 3.124 µg/mL | 0.102
B. subtilis 168 [1], first compound 1 µg/mL, partner 6.248 µg/mL | 0.0644
B. subtilis 168 [1], first compound 2 µg/mL, partner 1.562 µg/mL | 0.13
B. subtilis 168 [1], first compound 2 µg/mL, partner 3.124 µg/mL | 0.117
B. subtilis 168 [1], first compound 2 µg/mL, partner 6.248 µg/mL | 0.054
S. aureus DSM 20231 [2], first compound 0.078 µg/mL, partner 0.781 µg/mL | 0.65
S. aureus DSM 20231 [2], first compound 0.078 µg/mL, partner 1.562 µg/mL | 0.608
S. aureus DSM 20231 [2], first compound 0.078 µg/mL, partner 3.124 µg/mL | 0.559
S. aureus DSM 20231 [2], first compound 0.156 µg/mL, partner 0.781 µg/mL | 0.624
S. aureus DSM 20231 [2], first compound 0.156 µg/mL, partner 1.562 µg/mL | 0.62
S. aureus DSM 20231 [2], first compound 0.156 µg/mL, partner 3.124 µg/mL | 0.532
S. aureus DSM 20231 [2], first compound 0.312 µg/mL, partner 0.781 µg/mL | 0.683
S. aureus DSM 20231 [2], first compound 0.312 µg/mL, partner 1.562 µg/mL | 0.623
S. aureus DSM 20231 [2], first compound 0.312 µg/mL, partner 3.124 µg/mL | 0.518
S. aureus Newman [3], first compound 0.078 µg/mL, partner 0.781 µg/mL | 0.628
S. aureus Newman [3], first compound 0.078 µg/mL, partner 1.562 µg/mL | 0.536
S. aureus Newman [3], first compound 0.078 µg/mL, partner 3.124 µg/mL | 0.21
S. aureus Newman [3], first compound 0.156 µg/mL, partner 0.781 µg/mL | 0.536
S. aureus Newman [3], first compound 0.156 µg/mL, partner 1.562 µg/mL | 0.497
S. aureus Newman [3], first compound 0.156 µg/mL, partner 3.124 µg/mL | 0.206
S. aureus Newman [3], first compound 0.625 µg/mL, partner 0.781 µg/mL | 0.17
S. aureus Newman [3], first compound 0.625 µg/mL, partner 1.562 µg/mL | 0.185
S. aureus Newman [3], first compound 0.625 µg/mL, partner 3.124 µg/mL | 0.084
S. aureus Newman [3], first compound 1.25 µg/mL, partner 0.781 µg/mL | 0.0664
S. aureus Newman [3], first compound 1.25 µg/mL, partner 1.562 µg/mL | 0.033
S. aureus Newman [3], first compound 1.25 µg/mL, partner 3.124 µg/mL | 0.0169
S. aureus Newman [3], first compound 2.5 µg/mL, partner 0.781 µg/mL | 0.0252
S. aureus Newman [3], first compound 2.5 µg/mL, partner 1.562 µg/mL | 0.0136
S. aureus Newman [3], first compound 2.5 µg/mL, partner 3.124 µg/mL | 0.0374
S. pneumoniae D39V [4], first compound 0.0018 µg/mL, partner 1.25 µg/mL | 0.958
S. pneumoniae D39V [4], first compound 0.0018 µg/mL, partner 2.5 µg/mL | 0.959
S. pneumoniae D39V [4], first compound 0.0018 µg/mL, partner 5 µg/mL | 0.761
S. pneumoniae D39V [4], first compound 0.0035 µg/mL, partner 1.25 µg/mL | 0.962
S. pneumoniae D39V [4], first compound 0.0035 µg/mL, partner 2.5 µg/mL | 0.943
S. pneumoniae D39V [4], first compound 0.0035 µg/mL, partner 5 µg/mL | 0.736
S. pneumoniae D39V [4], first compound 0.007 µg/mL, partner 1.25 µg/mL | 0.897
S. pneumoniae D39V [4], first compound 0.007 µg/mL, partner 2.5 µg/mL | 0.778
S. pneumoniae D39V [4], first compound 0.007 µg/mL, partner 5 µg/mL | 0.533

Settings | Bliss interaction score
B. subtilis 168 [5] | 0.0459
S. aureus DSM 20231 [6] | 0.143
S. aureus Newman [7] | 0.113
S. pneumoniae D39V [8] | -0.0644

CO/N=C(\C(=O)N[C@@H]1C(=O)N2C(C(=O)O)=C(COC(C)=O)CS[C@H]12)c1csc(N)n1 [Cefotaxime] + C[n+]1ccc(-c2cc[n+](C)cc2)cc1 [Paraquat]
fitness, one replicate
Settings | partner 1.25 µg/mL | partner 2.5 µg/mL | partner 5 µg/mL
B. subtilis 168 [1], first compound 0.00775 µg/mL | 0.847 | 0.764 | 0.596
B. subtilis 168 [1], first compound 0.0155 µg/mL | 0.694 | 0.613 | 0.332
B. subtilis 168 [1], first compound 0.031 µg/mL | 0.494 | 0.423 | 0.279
S. aureus DSM 20231 [2], first compound 0.039 µg/mL | 0.729 | 0.775 | 0.767
S. aureus Newman [3], first compound 0.625 µg/mL | 0.0489 | 0.0421 | 0.0459
S. aureus Newman [3], first compound 1.25 µg/mL | 0.0645 | 0.0717 | 0.0769
S. aureus Newman [3], first compound 2.5 µg/mL | 0.0777 | 0.0674 | 0.0627

fitness
Settings | partner 1.25 µg/mL | partner 1.5 µg/mL | partner 2.5 µg/mL | partner 3 µg/mL | partner 5 µg/mL | partner 6 µg/mL
B. subtilis 168 [1], first compound 0.5 µg/mL | 0.199 | – | 0.171 | – | 0.166 | –
B. subtilis 168 [1], first compound 1 µg/mL | 0.108 | – | 0.0698 | – | 0.0734 | –
B. subtilis 168 [1], first compound 2 µg/mL | 0.0929 | – | 0.0597 | – | 0.0873 | –
S. aureus DSM 20231 [2], first compound 0.078 µg/mL | 0.762 | – | 0.767 | – | 0.748 | –
S. aureus DSM 20231 [2], first compound 0.156 µg/mL | 0.656 | – | 0.704 | – | 0.703 | –
S. aureus DSM 20231 [2], first compound 0.312 µg/mL | 0.611 | – | 0.664 | – | 0.65 | –
S. aureus Newman [3], first compound 0.078 µg/mL | 0.694 | – | 0.688 | – | 0.702 | –
S. aureus Newman [3], first compound 0.156 µg/mL | 0.521 | – | 0.542 | – | 0.573 | –
S. aureus Newman [3], first compound 0.312 µg/mL | 0.304 | – | 0.314 | – | 0.29 | –
S. pneumoniae D39V [4], first compound 0.0018 µg/mL | – | 0.986 | – | 0.971 | – | 0.957
S. pneumoniae D39V [4], first compound 0.0035 µg/mL | – | 0.992 | – | ≥ 1 | – | 0.962
S. pneumoniae D39V [4], first compound 0.007 µg/mL | – | 0.944 | – | 0.93 | – | 0.843

Settings | Bliss interaction score
B. subtilis 168 [5] | -0.0771
S. aureus DSM 20231 [6] | -0.0739
S. aureus Newman [7] | -0.0297
S. pneumoniae D39V [8] | -0.0531
